# In patent publication US20110002944A1, “Compositions and Methods to Promote Neural Cell Growth” (The Johns Hopkins University, priority 2006, published 2011):
# B1: OMgp: recombinant oligodendrocyte-myelin glycoprotein (protein, UniProt P23515 25-417, looked up)
# Oligodendrocyte-myelin …: ICPLQCICTERHRHVDCSGRNLSTLPSGLQENIIHLNLSYNHFTDLHNQLTQYTNLRTLDISNNRLESLPAHLPRSLWNMSAANNNIKLLDKSDTAYQWNLKYLDVSKNMLEKVVLIKNTLRSLEVLNLSSNKLWTVPTNMPSKLHIVDLSNNSLTQILPGTLINLTNLTHLYLHNNKFTFIPDQSFDQLFQLQEITLYNNRWSCDHKQNITYLLKWMMETKAHVIGTPCSTQISSLKEHNMYPTPSGFTSSLFTVSGMQTVDTINSLSVVTQPKVTKIPKQYRTKETTFGATLSKDTTFTSTDKAFVPYPEDTSTETINSHEAAAATLTIHLQDGMVTNTSLTSSTKSSPTPMTLSITSGMPNNFSEMPQQSTTLNLWREETTTNVKTPLPS
# B2: heat-inactivated Omgp: heat-inactivated OMgp (protein, UniProt P23515 25-417, looked up)
# Oligodendrocyte-myelin …: B1 Oligodendrocyte-myelin …
# modifications: heat-inactivated
# B3: MAG-HI: heat-inactivated MAG (protein, UniProt P20916 20-626, looked up)
# Myelin-associated glycoprotein: GHWGAWMPSSISAFEGTCVSIPCRFDFPDELRPAVVHGVWYFNSPYPKNYPPVVFKSRTQVVHESFQGRSRLLGDLGLRNCTLLLSNVSPELGGKYYFRGDLGGYNQYTFSEHSVLDIVNTPNIVVPPEVVAGTEVEVSCMVPDNCPELRPELSWLGHEGLGEPAVLGRLREDEGTWVQVSLLHFVPTREANGHRLGCQASFPNTTLQFEGYASMDVKYPPVIVEMNSSVEAIEGSHVSLLCGADSNPPPLLTWMRDGTVLREAVAESLLLELEEVTPAEDGVYACLAENAYGQDNRTVGLSVMYAPWKPTVNGTMVAVEGETVSILCSTQSNPDPILTIFKEKQILSTVIYESELQLELPAVSPEDDGEYWCVAENQYGQRATAFNLSVEFAPVLLLESHCAAARDTVQCLCVVKSNPEPSVAFELPSRNVTVNESEREFVYSERSGLVLTSILTLRGQAQAPPRVICTARNLYGAKSLELPFQGAHRLMWAKIGPVGAVVAFAILIAIVCYITQTRRKKNVTESPSFSAGDNPPVLFSSDFRISGAPEKYESERRLGSERRLLGLRGEPPELDLSYSHSDLGKRPTKDSYTLTEELAEYAEIRVK
# modifications: heat-inactivated
# Tests used:
# [1] = system: axonal growth cones of P5 rat hippocampal neurons; experiment: Growth cone turning assay in a MAG gradient, P5 hippocampal neurons; assay type: cell-based
# Procedure: To examine the functional role of β1-integrin in transducing MAG signaling in neuronal growth cones, growth cone turning assays were performed using rat hippocampal neurons. Growth cone turning assays are well-known and described in the art, for example by Song et al., 1998; Xiang et al., 2002; see also Experimental Procedures.
# (§1) Hippocampal neurons were isolated from embryonic and postnatal rats, or wild-type and NgR knockout mice (Zheng et al., 2005) as previously described (Song et al., 2002a; Song et al., 2002b). Similarly, cerebellar neurons were isolated from P5 rat cerebellum (Xiang et al., 2002). They were cultured on poly-L-lysine coated plates or coverslips as previously described (Song et al., 2002a; Song et al., 2002b). For biochemical analysis, embryonic day 18 (E18) neurons were treated with the agent AraC to eliminate dividing astrocytes and used at 5 days after plating as previously described (Song et al., 2002a; Song et al., 2002b). For growth cone turning assay, neurons were used between 2-3 days after plating. […]
# Microscopic gradients of recombinant MAG (150 μg/ml in the pipette) and OMgp (5 μg/ml in the pipette) were produced as previously described (Lohof et al., 1992; Song et al., 1998; Xiang et al., 2002). […] Statistical significance was assessed using ANOVA and accepted if p<0.01. […]
# [2] = system: axonal growth cones of rat P5 hippocampal neurons; experiment: Growth cone turning assay in an OMgp gradient, P5 hippocampal neurons; assay type: cell-based; conditions: for growth cone turning response to a gradient of the protein: 5 μg/ml in the pipette
# Source text: Three major myelin-associated inhibitory factors, Nogo-66, MAG and OMgp, are known to bind the common NgR protein, and may utilize the same signal transduction pathway to inhibit axonal extension (Domeniconi et al., 2002; Fournier et al., 2001; Liu et al., 2002; Wang et al., 2002b). Therefore, whether β1-integrin also mediates growth cone responses to other myelin-associated inhibitors was next considered. […] Thus, β1-integrin appears to specifically mediate acute axonal growth cone turning induced by MAG, but not by OMgp.
# Hippocampal neurons were isolated from embryonic and postnatal rats, or wild-type and NgR knockout mice (Zheng et al., 2005) as previously described (Song et al., 2002a; Song et al., 2002b). Similarly, cerebellar neurons were isolated from P5 rat cerebellum (Xiang et al., 2002). They were cultured on poly-L-lysine coated plates or coverslips as previously described (Song et al., 2002a; Song et al., 2002b). For biochemical analysis, embryonic day 18 (E18) neurons were treated with the agent AraC to eliminate dividing astrocytes and used at 5 days after plating as previously described (Song et al., 2002a; Song et al., 2002b). For growth cone turning assay, neurons were used between 2-3 days after plating. PI-PLC (1 or 2 units/ml) (Wang et al., 2002b), Ha2/5 (1 μg/ml) or echistatin (100 nM) (Gan et al., 1988) were added for 30 mins prior to and were present during the biochemical analysis or the growth cone turning assay.
# Microscopic gradients of recombinant MAG (150 μg/ml in the pipette) and OMgp (5 μg/ml in the pipette) were produced as previously described (Lohof et al., 1992; Song et al., 1998; Xiang et al., 2002). Axons were identified as the longest neurite in these cultures at the stage 2-3 of hippocampal neurons as previously described (Dotti et al., 1988). Growth cone assays were carried out at room temperature for 30 min. […] Statistical significance was assessed using ANOVA and accepted if p<0.01.
# FAK = experiment: MAG-induced FAK tyrosine phosphorylation in hippocampal neurons (IP anti-FAK, immunoblot); assay type: cell-based, rat; conditions: echistatin 100 nM
# Procedure: The question was next asked how β1-integrin signaling transduces MAG-induced neuronal responses. Focal adhesion kinase (FAK) is a major mediator of integrin-dependent signaling in many contexts, including cell migration and axon guidance (Nakamoto et al., 2004; Nikolopoulos and Gianotti, 2005; Xie and Tsai, 2004). […] MAG-induced FAK phosphorylation was abolished in the presence of echistatin (100 nM) or Ha2/5 ([…]) (FIG. 6B). […] The specific FAK tyrosine residues that become phosphorylated upon MAG stimulation in hippocampal neurons were next examined. […] Similar β1-integrin-dependent FAK phosphorylation of these tyrosine residues was also found in embryonic cortical neurons treated with MAG (data not shown).
# as §1, with “2002b).” for “2002b). For growth cone turning assay, neurons were used between 2-3 days after plating.”
# β1-integrin = biological target: T1, β1-integrin (Rattus norvegicus, UniProt P49134); experiment: Co-immunoprecipitation of MAG-Fc and β1-integrin in primary hippocampal neurons; assay type: binding; conditions: echistatin 100 nM; primary hippocampal cultures treated with MAG-Fc
# T1 construct: endogenous in cells; host or cells: primary hippocampal neurons (E18, 5 days after plating)
# T1 sequence (P49134 21-799): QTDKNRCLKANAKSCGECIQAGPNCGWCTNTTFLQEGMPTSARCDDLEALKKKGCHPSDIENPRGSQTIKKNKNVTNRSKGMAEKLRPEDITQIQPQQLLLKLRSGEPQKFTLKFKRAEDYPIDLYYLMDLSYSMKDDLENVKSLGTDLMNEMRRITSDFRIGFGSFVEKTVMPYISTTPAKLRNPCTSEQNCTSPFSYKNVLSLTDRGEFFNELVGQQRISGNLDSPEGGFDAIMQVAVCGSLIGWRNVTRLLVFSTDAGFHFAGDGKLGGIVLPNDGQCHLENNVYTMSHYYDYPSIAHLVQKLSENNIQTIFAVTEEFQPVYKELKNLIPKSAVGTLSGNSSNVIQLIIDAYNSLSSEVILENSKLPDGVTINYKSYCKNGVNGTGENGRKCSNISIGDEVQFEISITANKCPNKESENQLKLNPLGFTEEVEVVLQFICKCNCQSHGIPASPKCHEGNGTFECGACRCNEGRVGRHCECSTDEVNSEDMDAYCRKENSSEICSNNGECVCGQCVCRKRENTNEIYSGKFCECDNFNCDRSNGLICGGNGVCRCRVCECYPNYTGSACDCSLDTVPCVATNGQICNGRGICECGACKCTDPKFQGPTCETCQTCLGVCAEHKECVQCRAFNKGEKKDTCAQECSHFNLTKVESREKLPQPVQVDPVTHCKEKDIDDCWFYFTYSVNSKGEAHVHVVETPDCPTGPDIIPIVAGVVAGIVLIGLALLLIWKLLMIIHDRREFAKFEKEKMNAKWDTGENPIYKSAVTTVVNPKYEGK
# Procedure: To determine whether β1-integrin interacts with myelin associated glycoprotein (MAG), cultured primary hippocampal neurons were treated with recombinant MAG consisting of the MAG extracellular domain fused to human Fc (MAG-Fc; see Experimental Procedures), a fusion protein previously shown to potently regulate neurite outgrowth and induce growth cone turning responses (Domeniconi et al., 2002; Henley et al., 2004; Liu et al., 2002; McKerracher et al., 1994; Shim et al., 2005; Song et al., 1998).
# as §1
molecule,measurement,setting,value
echistatin,effect on MAG-induced growth cone repulsion,"[1]; 100 nM echistatin, MAG 150 μg/ml in the pipette",completely abolished
same,effect on OMgp-induced growth cone repulsion,"[2]; echistatin 100 nM, OMgp 5 μg/ml in the pipette",still exhibited significant repulsion
same,effect on MAG-induced FAK phosphorylation,FAK,abolished
same,association between MAG and β1-integrin (co-immunoprecipitation),β1-integrin,attenuated
B1,growth cone turning response to a gradient of the protein,[2],significant repulsive turning responses
B2,growth cone turning response to a gradient of the protein,[2],not
B3,growth cone turning response to a gradient of the protein,"[1]; 150 μg/ml in the pipette, 30 min",no bias in the direction of axonal extension
